Measurements taken from PubChem BioAssay (NCI).
Values joined by “and” are separate entries in the source; they are usually repeats but may differ in a detail not shown here. Equal values may be shown once.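 48-hour exposure; five concentrations; linearly interpolated endpoints. Here, GI50 denotes the concentration required for 50% inhibition of growth. The concentration for full growth arrest is given as TGI.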

Experiments:
Assay in all cases: inhibition of tumour cell growth, NCI panel, 48 h
CAKI-1 renal = tested on: CAKI-1 renal
ACHN renal = tested on: ACHN renal
EKVX NSCLC = tested on: EKVX NSCLC
MALME-3M melanoma = tested on: MALME-3M melanoma
A498 renal = tested on: A498 renal
UACC-257 melanoma = tested on: UACC-257 melanoma
SF-539 CNS = tested on: SF-539 CNS
M14 melanoma = tested on: M14 melanoma
K-562 leukemia = tested on: K-562 leukemia
RXF 393 renal = tested on: RXF 393 renal

Structure (SMILES) | GI50 (CAKI-1 renal) | TGI (CAKI-1 renal) [µM] | GI50 (ACHN renal) | TGI (ACHN renal) [µM] | GI50 (EKVX NSCLC) | TGI (EKVX NSCLC) [µM] | GI50 (MALME-3M melanoma) | TGI (MALME-3M melanoma) | GI50 (A498 renal) | TGI (A498 renal) | GI50 (UACC-257 melanoma) [µM] | TGI (UACC-257 melanoma) [µM] | GI50 (SF-539 CNS) | TGI (SF-539 CNS) | GI50 (M14 melanoma) | TGI (M14 melanoma) [µM] | GI50 (K-562 leukemia) | TGI (K-562 leukemia) [µM] | GI50 (RXF 393 renal) | TGI (RXF 393 renal)
N#Cc1ccc(O)c(C2=NCC(c3ccc(-c4ccccc4)cc3)O2)c1 (stereo not drawn) | 0.106 µM | 13.1 | 0.418 µM | 12.4 | 0.342 µM | 10.4 | 1.71 µM | 14.3 µM | 0.402 µM | 18.5 µM | 1.15 | 7.96 | 0.517 µM | 11.4 µM | 0.399 µM | 2.95 | 0.338 µM | > 100 | 0.487 µM | 5.55 µM
Cl.[O-]c1cccc2cccnc12.[O-]c1cccc2cccnc12.[O-]c1cccc2cccnc12.[O-]c1cccc2cccnc12.[Ti+4] | 1.61 µM | > 100 | 2.62 µM | > 100 | 0.916 µM | > 27.4 | 1.91 µM | > 40.2 µM | 8.24 µM | 21.7 µM | 0.712 | > 35.1 | 2.06 µM | 14.4 µM | 0.994 µM | 17.8 | 0.303 µM | – | 0.319 µM | 2.13 µM
N#Cc1ccc(C(=O)c2cnn(-c3ccc(F)cc3)c2N)cc1 | > 25 µM | > 25 | > 25 µM | > 25 | – | – | > 25 µM | > 25 µM | > 25 µM | > 25 µM | > 25 | > 25 | > 25 µM | > 25 µM | > 25 µM | > 25 | > 25 µM | > 25 | > 25 µM | > 25 µM
CCCCCC1CC=CC(NC(=O)OCc2ccccc2)C1/C=C/CCCC1OCCO1 (stereo not drawn) | – | > 100 | – | > 100 | – | > 100 | – | > 100 µM | – | 98.7 µM | – | > 100 | – | > 100 µM | – | > 100 | – | > 100 | – | > 100 µM
CCCCCCCCC1C(C)c2c([nH]c3ccccc23)C2C(=O)N(c3ccccc3)C(=O)C21 (stereo not drawn) | – | 27.5 | – | 23.7 | – | 51.1 | – | 39.1 µM | – | 36.9 µM | – | – | – | 32.7 µM | – | 28 | – | 14.7 | – | 6.84 µM
Fc1ccc(-c2c(-c3ccncc3)[nH]c3cccnc23)cc1 | 7.43 µM | > 25 | 1.63 µM | > 25 | – | – | > 21.9 µM | > 25 µM | > 14.8 µM | > 25 µM | > 25 | > 25 | > 25 µM | > 25 µM | > 25 µM | > 25 | > 23.1 µM | > 25 | > 20.4 µM | > 25 µM
CCOC1Oc2ccccc2C(=O)/C1=C\Nc1ccc(C(=O)O)c(O)c1 (stereo not drawn) | 20.9 µM | 44 | 18.3 µM | 44.3 | 36.7 µM | 96.1 | – | – | 30.6 µM | 73.7 µM | 19.4 | 44.6 | 25.5 µM | 59.5 µM | 17.3 µM | 36 | 36.4 µM | > 100 | 16.9 µM | 41.9 µM
COc1ccc(C2CC(c3ccc4ccccc4c3)=NN2c2nc(O)c(C3=c4cc(Cl)ccc4=NC3=O)s2)cc1 (stereo not drawn) | 0.036 µM and < 0.005 µM | – | 0.025 µM and < 0.005 µM | – | 0.0313 µM and < 0.005 µM | – | 0.0182 µM and < 0.005 µM | 0.0363 µM and < 0.005 µM | 0.0166 µM and < 0.005 µM | 0.0419 µM and < 0.005 µM | – | – | 0.0195 µM and < 0.005 µM | 0.0402 µM and < 0.005 µM | 0.0354 µM and < 0.005 µM | – | 0.0371 µM and < 0.005 µM | 1.65 | 0.0186 µM and < 0.005 µM | 0.0389 µM and < 0.005 µM
C=C(C)C1CC=C(C)C(O)([C@@]2(O)C[C@H](C(=C)C)CC=C2C)C1 (stereo partly drawn) | – | 51.8 | – | 47.7 | – | – | – | 81.8 µM | – | 58.2 µM | – | 42.8 | – | 42.1 µM | – | 39.9 | – | 49.4 | – | 29.1 µM
CCC1=CCC(P(=O)(c2ccccc2)c2ccccc2)CC1C (stereo not drawn) | – | > 100 | – | – | – | > 100 | – | > 100 µM | – | > 100 µM | – | > 100 | – | > 100 µM | – | > 100 | – | > 100 | – | > 100 µM
CC[C@H](C)[C@H](NC(=O)[C@H]1CCCCN1C)C(=O)N(C)[C@H](C[C@@H](OC(C)=O)c1nc(C(=O)NC23C4C5C2C2C3C4C52C(=O)OC)cs1)C(C)C (stereo partly drawn) | 0.016 µM | – | 0.0189 µM and 0.0025 µM | 4.03 | 0.027 µM and 0.011 µM | > 25 | 0.00288 µM and 0.0025 µM | > 25 µM | 0.0139 µM and 0.00317 µM | 0.133 µM | – | – | 0.00115 µM and 0.0025 µM | 0.0114 µM and 0.00941 µM | 0.00713 µM and < 0.0025 µM | < 0.0025 | 0.000952 µM and 0.0025 µM | > 25 | 0.000768 µM | 0.00906 µM
O=c1oc2c(O)c(O)cc3c(=O)oc4c(O)c(O)cc1c4c23 | – | 29.5 | – | > 100 | – | > 100 | – | – | – | > 100 µM | > 100 | > 100 | – | – | – | > 100 | > 100 µM | > 100 | > 100 µM | > 100 µM
Cc1cc(=O)n2c(cc3cccccc32)n1 | – | > 100 | – | > 100 | – | > 100 | – | – | – | > 100 µM | – | > 100 | – | > 100 µM | – | > 100 | – | > 100 | – | > 100 µM
CCCn1cc(/C=N\N=C2\C(=O)Nc3ccc(C)cc32)c2ccccc21 | – | – | 3.56 µM | > 100 | 2.36 µM | > 100 | 1.88 µM | 6.03 µM | 1.37 µM | 7.5 µM | 12.3 | 66.6 | 2.69 µM | 17.1 µM | 1.92 µM | 4.7 | 2.22 µM | 20.5 | 2.17 µM | 7.94 µM
CCCCCCCCCCCCSC1=CC(=O)C=CC1=O | 3.26 µM | 24.2 | 9.13 µM | > 42.4 | – | – | 13.1 µM | > 50 µM | 7.96 µM | 24.3 µM | 4.01 | 15.9 | 1.23 µM | 3.5 µM | 11.7 µM | > 37.1 | 6.44 µM | > 36.9 | 2.86 µM | 19.3 µM
CCN(CC)CCNc1ccc(N=Nc2cnc3ccccc3c2)c2ccccc12 | 1.39 µM | 3.21 | 1.61 µM | 3.15 | – | – | – | – | 1.65 µM | 3.05 µM | 1.96 | 3.49 | 1.67 µM | 3.07 µM | 1.79 µM | 3.29 | 1.03 µM | 2.3 | 1.88 µM | 4.05 µM
